Patent US6838084B1, “Cytotoxic T-cell epitopes of the papilloma virus l1-protein and use thereof in diagnosis and therapy” (priority 1999, dated 2005)

What was measured:
CVLP-stimulated T cells = assay: Restimulation of CVLP-stimulated T cells with peptide pools, HLA A24-positive donor; format: cell-based, human; details: common to pools A and 2
Method: The name of the particular peptide pool with which the BLCLs were loaded is listed from left to right. “None” represents BLCLs which were incubated only with buffer.
The 20 mer peptides 1 to 51 were combined in peptide pools A to H and 1 to 7 according to the matrix
The T cells of an HLA A1-positive donor were then restimulated in 100 μl of medium at 37° C. with the peptide pools in the presence of 10 IU/ml IL2. In this connection, such amounts of peptide pools were used that for each individual peptide 1 μg/ml was added. Cells incubated only with buffer served as a negative control.
After one hour, 1 μl of Golgi Plug was added. The cells were incubated at 37° C. for a further 5 hours. The cells were then fixed and permeabilized, and stained with α-hum CD8/PE, with α-hum CD4/Cychrome and with α-hum γ-interferon/FITC. The cells were examined in a FACScan calibur with respect to their label and the data were analyzed with the aid of Cellquest software.
Furthermore, the T cells of an HLA A24-positive donor were restimulated with the peptide pools as above and analyzed.

[1] = tested on: BLCL cells of an HLA A24-positive donor; assay: Lysis of BLCL cells loaded with peptide 9 (51Cr release); format: cell-based, human
Method: The target cells were lysed by T cells stimulated with peptides 1-43 (=effector cells) . […] The % values were calculated according to the formula given in Example 7.
BLCL cells of an HLA A24-positive donor were incubated with […] at 37° C. for one hour, washed three times with medium and divided into 2 aliquots. 10 μg/ml of peptide 9 were added to one aliquot of the cells, and the other aliquot served as a negative control in the absence of a peptide. Subsequently, in each case 2000 cells (=target cells). were added to increasing amounts of T cells (=effector cells) in a total volume of 150 μl. The T cells had been stimulated previously over 5 weeks with a mixture of 43 peptides (peptides 1-43, 1 μg/ml each). Reaction mixtures for spontaneous and maximum cell lysis were set up in parallel. For spontaneous lysis, target cells which were incubated in medium were used, and for maximum lysis target cells which were incubated with 0.5% Triton were used. The mixtures were incubated at 37° C. for 5 h. 50 μl of mixture supernatant were applied to Luma plates and dried at room temperature overnight. On the following morning, the amount of radioactive ^51Cr was determined with the aid of a Canberra-Packerd B-plate counter (counts) and compared to the maximal lysed cells of the Triton mixture. The percentage of specific lysis was determined according to the formula: x=100·(counts−spontaneous counts)/(maximal counts−spontaneous counts).

## SFYNPDTQRLVWACVGVEVG [Peptide 9]
CVLP-stimulated T cells
  peptide responsible for restimulation, deduced from pool matrix: in all probability responsible for restimulation of CVLP-stimulated T cells
[1]; 10 μg/ml peptide, effector T cells stimulated 5 weeks with peptides 1-43, 5 h, FIG. 8
  lysis of peptide-loaded BLCL target cells by T cells (51Cr release): lyse BLCL cells loaded with peptide 9 effectively
[1]; Table 2
  Epitop-Information (HLA restriction): HLA A24 restr.
  Epitop-Information (epitope type): cytotoxic epitope
[1]; conclusion from FIG. 8
  epitope classification: HLA A24-restricted cytotoxic T-cell epitope
